Assay results: publication PMC5571359, “Screening the Medicines for Malaria Venture Pathogen Box across Multiple Pathogens Reclassifies Starting Points for Open-Source Drug Discovery” (Antimicrobial Agents and Chemotherapy, 2017)
Where two headings read alike, the source gives them in different places.

Columns and labels:
[1] = tested on: NF54-pfs16-LUC-GFP stage IV gametocytes; assay: Plasmodium falciparum late stage gametocyte (LSG) image-based assay; assay type: cell-based; conditions: Plasmodium falciparum
HepG2 = conditions: cited from earlier work; for CC50: read-out: HepG2 PBox CC50 µM, HepG2 cytotoxicity; for CC50 / HepG2 PBox CC20: ref PBox supporting information; for HepG2 PBox CC20 μMc: ref Pbox supporting information
[2] = tested on: Plasmodium falciparum 3D7 asexual blood stage; assay: microbe, parasite or virus in culture
HEK293 cells = assay: HEK293 resazurin cell cytotoxicity assay; conditions: Homo sapiens
[3] = tested on: T. b. brucei 427 bloodstream trypanosomes; assay: T. b. brucei resazurin viability assay; assay type: cell-based, Trypanosoma brucei brucei; conditions: Trypanosoma brucei; read-out: T b.brucei Discovery Biology IC50
[4] = tested on: T. cruzi intracellular amastigotes; assay: Intracellular anti-Trypanosoma cruzi image-based assay (amastigotes); assay type: cell-based; conditions: for IC50: intracellular amastigotes
[5] = tested on: T. cruzi C4 β-galactosidase reporter parasite in MRC 5SV2 host cells; conditions: ref Pbox supporting information; read-out: T. cruzi Pbox IC50; cited from earlier work
P. falciparum ABS = conditions: cited from earlier work; for IC50: read-out: Pf 3D7 Pbox IC50
[6] = tested on: L. donovani MHOM/IN/80/DD8 intracellular amastigotes; assay: Leishmania donovani intracellular amastigote assay in THP-1 cells; assay type: cell-based; conditions: Leishmania donovani, THP-1, read-out: L, donovani Discovery Biology IC50 µM
liver stage = conditions: ref Pbox supporting information; cited from earlier work
[7] = NF54, read-out: Antiplasmodial IC50 (GAM / LSG), PBox compounds, stage IV gametocytes, single determination
[8] = 3D7, read-out: Antiplasmodial IC50 (ABS), PBox compounds, P. falciparum 3D7
[9] = 3D7, read-out: activity against P. falciparum (novel antiplasmodial actives of the tuberculosis set)
[10] = HEK293, read-out: HEK % Inhibition 20uM/IC50 Discovery Biology
[11] = 3D7, read-out: Antiplasmodial IC50 (ABS)
[12] = HEK293, read-out: HEK % Inhibition 20uM/IC50 Discovery Biology (IA)
[13] = P. falciparum 3D7, ref PBox supporting information
[14] = NF54, read-out: Pf Stage IV GAMS Discovery Biology IC50 µM, stage IV gametocytes
[15] = 3D7, read-out: Pf 3D7 Discovery Biology IC50 µM, P. falciparum 3D7 asexual blood stage
[16] = HEK293, read-out: HEK % Discovery Biology IC50 uM
[17] = NF54, read-out: Pf Stage IV GAMS Discovery Biology IC50 µM, stage IV gametocytes, Discovery Biology
[18] = 3D7, read-out: Pf 3D7 Discovery Biology IC50 µM, P. falciparum 3D7 asexual blood stage, Discovery Biology

For `CCC(Sc1nc2ccccc2o1)C(=O)Nc1nccs1` (stereo not drawn) [MMV676383], the IC50 [1, 7] is given as 1.37 µM, the CC50 (HepG2) is given as 13 µM and the IC50 [2, 8] is given as 4.43 µM. It also gave an IC50 [2, 9] of 4 to 5 µM and an inhibition at 20 µM (HEK293 cells; [10]) of 88%.

For `CC(C)(C)c1cnc(NC(=O)c2ccccc2O)s1` [MMV495543], the IC50 [3] is listed as 5450 nM and the CC50 (HepG2) is listed as 47.6 µM.

In the case of `FC(F)(F)c1ccc(N(c2cccnc2)C2CCN(c3ccc(C(F)(F)F)cn3)CC2)cc1` [MMV689243], the Emax ([4]; Trypanosoma cruzi, PBox kinetoplastid set compounds active against T. cruzi alone, read-out: Emax against T. cruzi (subefficacious effect)) is given as less than 100%, the IC50 ([4]; Trypanosoma cruzi, read-out: T cruzi Discovery Biology IC50) is given as 700 nM and the IC50 [5] is given as 15 nM. For the same compound, the “HepG2 PBox CC20” value (HepG2) was 25800 nM and the IC50 (HEK293 cells; [10]) was greater than 20 µM.

For `Cc1[nH]c2cc(F)cc(F)c2c(=O)c1-c1ccc(Oc2ccc(OC(F)(F)F)cc2)cc1` [MMV671636], the “HepG2 PBox CC20 μMc” value (HepG2) is listed as greater than 80000 nM, the IC50 [2, 11] is listed as 1.01 µM and the IC50 (HEK293 cells; [12]) is listed as greater than 20 µM.

For `Nc1ncc(Br)cc1-c1nc2cc(Cl)cnc2[nH]1` [MMV676358], the IC50 (P. falciparum ABS; [13]) is listed as 1500 nM and the IC50 (HEK293 cells; [12]) is listed as greater than 20 µM.

In the case of `CNc1nnc(Sc2cnn(-c3ccccc3)c(=O)c2Cl)s1` [MMV688763], the IC50 [1, 14] is listed as 5.33 µM, the IC50 ([6]; intracellular amastigotes, values marked *) is listed as 2.11 µM and the “HepG2 PBox CC20 μMc” value (HepG2) is listed as 1600 nM. For the same compound, the IC50 [2, 15] was 3.36 µM and the IC50 (HEK293 cells; [16]) was 6.32 µM.

For `CC1(C)Cc2c(c(N3CCOCC3)nc3snc(Br)c23)CO1` [MMV687794], the IC50 (P. falciparum ABS; [13]) is listed as 290 nM and the IC50 (HEK293 cells; [12]) is listed as greater than 20 µM.

In the case of `Cn1c(=O)c2c(S(C)(=O)=O)snc2n(C)c1=O` [MMV687251], the CC50 (HepG2) is given as 1.1 µM and the inhibition at 20 µM (HEK293 cells; [10]) is given as 100%.

`O=C(Nc1ccc(C(F)(F)F)c(C(F)(F)F)c1)c1cc(Cl)ccc1O` [MMV687807] showed an IC50 [1, 17] of 5.07 µM, an IC50 [3] of 660 nM and an IC50 ([6]; Discovery Biology, some values carry an asterisk (not explained in the part shown)) of 5.06 µM. The CC50 (HepG2) was 0.65 µM, the IC50 [2, 18] was 1.82 µM and the IC50 (HEK293 cells; [16]) was 1.99 µM.

In the case of `COc1cccc(-n2nnnc2S(=O)(=O)Cc2ccccc2)c1` [MMV676388], the IC50 [1, 7] is reported as 2.99 µM, the IC50 [2, 8] is reported as 4.93 µM and the IC50 [2, 9] is reported as 4 to 5 µM.

In the case of `CC(C)n1nc(-c2cc3c(Cl)cccc3[nH]2)c2c(N)ncnc21` [MMV688417], the “activity against T. cruzi in the Discovery Biology assay” value [4] is reported as “subefficacious activity”, the IC50 ([4]; Trypanosoma cruzi, PBox compounds, 48 h exposure, read-out: IC50 T. cruzi (Discovery Biology)) is reported as 1430 nM and the IC50 [3] is reported as 6100 nM. It also gave an inhibition at 20 µM (HEK293 cells; [10]) of 83%.

For `O=C(Nc1nc(-c2ccccn2)cs1)c1cncn1-c1ccccc1` [MMV676512], the IC50 ([4]; Trypanosoma cruzi, Discovery Biology, read-out: T cruzi Discovery Biology IC50) is listed as 4120 nM, the IC50 [3] is listed as 2870 nM and the CC50 (HepG2) is listed as 3.8 µM. For the same compound, the IC50 (HEK293 cells; [16]) was 2.83 µM.

In the case of `O=C1COCc2ccc(Br)cc2N1Cc1ccc(C(F)(F)F)cc1` [MMV032995], the IC50 (P. falciparum ABS; [13]) is given as 960 nM and the IC50 (liver stage) is given as 2000 nM.

In the case of `c1ccc(-c2[nH]c3ccccc3c2C(c2ccccn2)N2CCCC2)cc1` (stereo not drawn) [MMV688762], the IC50 [1, 14] is listed as 3.16 µM, the “HepG2 PBox CC20 μMc” value (HepG2) is listed as 1000 nM and the IC50 (HEK293 cells; [12]) is listed as greater than 20 µM.

In the case of `COc1cccc(-n2nnnc2S(C)(=O)=O)c1` [MMV272144], the IC50 [1, 17] is given as 1.92 µM, the IC50 [3] is given as 4120 nM and the CC50 (HepG2) is given as 1.7 µM. For the same compound, the inhibition at 20 µM (HEK293 cells; [10]) was 100%.

In the case of `CS(=O)(=O)N1CCC(Cn2nc(Cc3cccc4ccccc34)c3c(N)ncnc32)CC1` [MMV676050], the “HepG2 PBox CC20” value (HepG2) is given as 53000 nM and the inhibition at 20 µM (HEK293 cells; [10]) is given as 77%.

In the case of `CN1CCN(CCCOc2ncc(Nc3ncc(-c4ccc(C(F)(F)F)c(F)c4)nc3C(N)=O)cn2)CC1` [MMV687812], the CC50 (HepG2) is given as 3.9 µM, the IC50 [2, 18] is given as 1.6 µM and the inhibition at 20 µM (HEK293 cells; [10]) is given as 100%.

In the case of `CO/C=C(/C(=O)OC)c1ccccc1Oc1cc(Oc2ccccc2C#N)ncn1` [MMV021057], the IC50 [1, 7] is given as 0.03 µM, the IC50 (P. falciparum ABS; Pf 3D7, ref Pathogen Box supporting information) is given as 53.6 nM and the IC50 [2, 11] is given as 0.04 µM. It also gave an IC50 ([2]; 3D7, read-out: Pf 3D7 Discovery Biology IC50 µM) of 0.035 µM and an inhibition at 20 µM (HEK293 cells; [10]) of 71%.

For `CS(=O)(=O)c1ccc(C(=O)N(CC2CCCO2)c2nc3ccccc3s2)cc1[N+](=O)[O-]` (stereo not drawn) [MMV688761], the IC50 [1, 14] is listed as 0.9 µM, the IC50 [3] is listed as 3490 nM and the “HepG2 PBox CC20 μMc” value (HepG2) is listed as 6900 nM. The IC50 [2, 15] was 4.08 µM and the inhibition at 20 µM (HEK293 cells; [10]) was 42%.

With `Brc1cncc(-c2cc(NCCCn3ccnc3)nc(-c3ccccc3)n2)c1` [MMV661713] the IC50 [2, 8] was 1.49 µM and the IC50 [2, 9] was less than 2 µM.

With `COc1ccc(-c2onc(C(F)(F)F)c2-c2ccc(Cl)cc2)c(O)c1` [MMV688766] the IC50 [1, 7] was 1.31 µM, the IC50 [2, 8] was 0.85 µM and the IC50 (HEK293 cells; [12]) was greater than 20 µM.

In the case of `CC(Oc1ccccc1)C(=O)Nc1nc(-c2ccccn2)cs1` (stereo not drawn) [MMV676411], the IC50 [1, 17] is listed as 1.92 µM, the IC50 [3] is listed as 3220 nM and the CC50 (HepG2) is listed as 29.3 µM. It also gave an IC50 [2, 18] of 5 µM and an inhibition at 20 µM (HEK293 cells; [10]) of 81%.

For `O=C(NCCc1ccccc1)c1cc(-c2cccnc2)cnc1NCC1CC1` [MMV026490], the IC50 [3] is listed as 6020 nM, the EC50 (P. falciparum ABS; ChEMBL Data, P. falciparum, read-out: TCMDC (ref 93) EX50) is listed as 850 nM and the IC50 (P. falciparum ABS; [13]) is listed as 1290 nM. The IC50 (HEK293 cells; [12]) was greater than 20 µM.
